# Test system: SARS-CoV-2
# Experiment: Antiviral activity against SARS-CoV-2 hCoV-19/Egypt/NRC-03/2020 infected in Vero E6 cells assessed as reduction in plaque formation pretreated with cells for 1 hr followed by viral infection for 1 hr with subsequent replacement of compound containing medium and measured after 3 to 4 days by crystal violet staining based analysis
# Assay type: functional, organism-based
# Details: Severe acute respiratory syndrome coronavirus 2, hCoV-19/Egypt/NRC-03/2020, Vero C1008
smiles,measurement,value
O=C(/C=C/c1ccc(O)c(O)c1)O[C@H](Cc1ccc(O)c(O)c1)C(=O)O [ROSMARINIC ACID],IC50,0.0255 mg/L

# Source: ChEMBL document CHEMBL5370560, “Isolation of Anti-SARS-CoV-2 Natural Products Extracted from Mentha canadensis and the Semi-synthesis of Antiviral Derivatives” (J Nat Prod, 2023)
